Results published in US8592407B2, “Pyrrolo[2,1-c][1,4] benzodiazepine derivatives with dithiocarbamate side chains and process for the preparation thereof” (Council of Scientific & Industrial Research, priority 2008, dated 2013).

Assays:
[1] = tested on: calf thymus DNA (CT-DNA); test: Thermal denaturation studies with duplex-form calf thymus DNA; assay type: binding; details: [PBD]:[DNA] 1:5, CT-DNA 100 μM, ligand 20 μM, pH 7.00; for ΔTm after incubation at 37° C. for 0 h: 0 h at 37° C.; for ΔTm after incubation at 37° C. for 18 h: 18 h at 37° C.
Description: Compounds have been subjected to thermal denaturation studies with duplex-form calf thymus DNA (CT-DNA) using an modification of a reported procedure (Newman, M. S. Carcinog-compr. Surv. 1976, 1, 203; (b) Hecht, S. S.; Loy, M.; Hoffman, Carcinog-compr. Surv. 1976, 1, 325). Working solutions in aqueous buffer (10 mM NaH2PO4/Na2HPO4, 1 mM Na2EDTA, pH 7.00+0.01) containing CT-DNA (100 μm in phosphate) and the PBD (20 μm) have been prepared by addition of concentrated PBD solutions in DMSO to obtain a fixed [PBD]/[DNA] molar ratio of 1:5. The DNA−PBD solutions have been incubated at 37° C. for 0 and 18 h prior to analysis. Samples have been monitored at 260 nm using a Beckman DU-800 spectrophotometer fitted with high performance temperature controller, and heated at 1° C. min^−1
in the 40-110° C. range. DNA helix[…]coil transition temperatures (Tm) have been obtained from the maxima in the d(A260)/dT derivative plots. Drug-induced alterations in DNA melting behavior are given by: ΔTm=Tm(DNA+PBD)−Tm (DNA alone), where the Tm value for the PBD-free CT-DNA is 69.1±0.01.

[2] = tested on: Colon 502713; test: Preliminary in vitro cytotoxicity on six cell lines; details: concentration (mg/ml) 1 × 10^−5 M
[3] = tested on: Colon HCT-15; test: as above; details: unit assumed
[4] = tested on: Ovary OVCAR-5; test: as above
[5] = tested on: Liver HEP-2; test: as above; details: unit assumed
[6] = tested on: Lung A-549; test: as above
[7] = tested on: Neuroblastoma IMR-32; test: as above
[8] = concentration (mg/ml) 1 × 10^−5 M
[9] = concentration (mg/ml) 1 × 10^−6 M

COc1cc2c(cc1OCCCCSC(=S)N1CCN(CCCN3C(=O)c4cccc5cccc(c45)C3=O)CC1)N=C[C@@H]1CCCN1C2=O [Compound 13c, 4-[(11aS)-7-(methyloxy)-5-oxo-2,3,5,11a-tetrahydro-1H-benzo[e]pyrrolo[1,2-a][1,4]diazepin-8-yl]oxybutyl4-[3-(1,3-dioxo-2,3-dihydro-1H-benzo[de]isoquinolin-2-yl)propyl]hexahydro-1-pyrazinecarbodithioate]
ΔTm after incubation at 37° C. for 0 h [1]: 5.0 °C | ΔTm after incubation at 37° C. for 18 h [1]: 5.0 °C

COc1cc2c(cc1OCCCCCSC(=S)N1CCN(CCCN3C(=O)c4cccc5cccc(c45)C3=O)CC1)N=C[C@@H]1CCCN1C2=O [Compound 13d, 5-[(11aS)-7-(methyloxy)-5-oxo-2,3,5,11a-tetrahydro-1H-benzo[e]pyrrolo[1,2-a][1,4]diazepin-8-yl]oxypentyl4-[3-(1,3-dioxo-2,3-dihydro-1H-benzo[de]isoquinolin-2-yl)propyl]hexahydro-1-pyrazinecarbodithioate]
ΔTm after incubation at 37° C. for 0 h [1]: 4.0 °C | ΔTm after incubation at 37° C. for 18 h [1]: 4.6 °C

COc1cc2c(cc1OCCCCSC(=S)N1CCN(C)CC1)N=C[C@@H]1CCCN1C2=O [Compound 14c, 4-[(11aS)-7-(methyloxy)-5-oxo-2,3,5,11a-tetrahydro-1H-benzo[e]pyrrolo[1,2-a][1,4]diazepin-8-yl]oxybutyl4-methylhexahydro-1-pyrazinecarbodithioate]
Preliminary in vitro cytotoxicity data [2]: 75 | Preliminary in vitro cytotoxicity data [3, 8]: 82% | ΔTm after incubation at 37° C. for 0 h [1]: 2.1 °C | ΔTm after incubation at 37° C. for 18 h [1]: 2.2 °C | Preliminary in vitro cytotoxicity data [4, 8]: 36 | Preliminary in vitro cytotoxicity data [5, 8]: 66% | Preliminary in vitro cytotoxicity data [6, 8]: 50 | Preliminary in vitro cytotoxicity data [7, 8]: 86

COc1cc2c(cc1OCCCCCN1CCN(C(=S)SCCC(C#N)(c3ccccc3)c3ccccc3)CC1)N=C[C@@H]1CCCN1C2=O [Compound 12d, 3-cyano-3,3-diphenylpropyl 4-(5-[(11aS)-7-(methyloxy)-5-oxo-2,3,5,11a-tetrahydro-1H-benzo[e]pyrrolo[1,2-a][1,4]diazepin-8-yl]oxypentyl)hexahydro-1-pyrazinecarbodithioate]
ΔTm after incubation at 37° C. for 0 h [1]: 2.0 °C | ΔTm after incubation at 37° C. for 18 h [1]: 2.1 °C

COc1cc2c(cc1OCCCCCSC(=S)N1CCN(C)CC1)N=C[C@@H]1CCCN1C2=O [Compound 14d, 5-[(11aS)-7-(methyloxy)-5-oxo-2,3,5,11a-tetrahydro-1H-benzo[e]pyrrolo[1,2-a][1,4]diazepin-8-yl]oxypentyl4-methylhexahydro-1-pyrazinecarbodithioate]
Preliminary in vitro cytotoxicity data [2]: 78 | Preliminary in vitro cytotoxicity data [3, 8]: 50% | ΔTm after incubation at 37° C. for 0 h [1]: 6.0 °C | ΔTm after incubation at 37° C. for 18 h [1]: 10.9 °C | Preliminary in vitro cytotoxicity data [4, 8]: 22 | Preliminary in vitro cytotoxicity data [5, 8]: 66% | Preliminary in vitro cytotoxicity data [6, 8]: 31 | Preliminary in vitro cytotoxicity data [7, 8]: 95

COc1cc2c(cc1OCCCSC(=S)N1CCN(CCCN3C(=O)c4cccc5cccc(c45)C3=O)CC1)N=C[C@@H]1CCCN1C2=O [Compound 13b, 3-[(11aS)-7-(methyloxy)-5-oxo-2,3,5,11a-tetrahydro-1H-benzo[e]pyrrolo[1,2-a][1,4]diazepin-8-yl]oxypropyl4-[3-(1,3-dioxo-2,3-dihydro-1H-benzo[de]isoquinolin-2-yl)propyl]hexahydro-1-pyrazinecarbodithioate]
ΔTm after incubation at 37° C. for 0 h [1]: 3.1 °C | ΔTm after incubation at 37° C. for 18 h [1]: 3.3 °C

COc1cccc2c1C(=O)c1c(O)c3c(c(O)c1C2=O)C[C@@](O)(C(=O)CO)C[C@@H]3O[C@H]1C[C@H](N)[C@H](O)[C@H](C)O1 [Adriamycin, reference compound]
Preliminary in vitro cytotoxicity data [3, 9]: 58% | Preliminary in vitro cytotoxicity data [4, 9]: 30 | Preliminary in vitro cytotoxicity data [5, 9]: 31% | Preliminary in vitro cytotoxicity data [6, 9]: 61 | Preliminary in vitro cytotoxicity data [7, 9]: 80

COc1cc2c(cc1O)N=CC1CCCN1C2=O (stereo not shown) [DC-81, reference compound]
ΔTm after incubation at 37° C. for 0 h [1]: 0.3 °C | ΔTm after incubation at 37° C. for 18 h [1]: 0.7 °C
